Test results taken from patent publication US8703815B2, “Small molecules that covalently modify transthyretin” (The Scripps Research Institute, priority 2009, dated 2014).
Where two headings read alike, the source gives them in different places.

Experiments:
IMR-32 cells = assay: Compound cytotoxicity to IMR-32 cells in the absence of WT-TTR; type: cell-based, human
Method: Metabolically active cells reduce the resazurin redox dye to resorufin, a soluble fluorescent compound. [O'Brien et al., Eur. J. Biochem. 267:5421-5426 (2002)] The percentage of viable cells was calculated relative to cells treated with vehicle only (cell culture media and DMSO=100% viable).
(§1) The human neuroblastoma IMR-32 cell line (CCL-127 ATCC) was maintained in Opti-MEM® medium (Invitrogen), supplemented with 5% FBS, 1 mM Hepes buffer, 2 mM L-glutamine, 100 units/mL penicillin, 100 μg/mL streptomycin and 0.05 mg/mL CaCl2 (complete cell medium). Cells were seeded in black wall, clear bottom, tissue culture treated 96-well plates (Costar) at a density of 6,000 cells/well in complete cell medium and incubated overnight (about 18 hours) at 37° C.
(§2) Recombinant WT-TTR purified in the cold was used as the cytotoxic insult. The protein was buffer-exchanged in Hanks' Balanced Salt Solution (HBSS, Mediatech, Manassas, Va.) at 10° C. using a Centriprep® filter device (10 kDa MWCO, Millipore). Compounds (16 mM in DMSO) were diluted 1:1000 with WT-TTR (16 μM in HBSS, filter sterilized) or with HBSS only, vortexed and incubated for 18 hours at 37° C. WT-TTR (16 μM in HBSS) containing the same amount of DMSO was prepared in parallel and incubated under the same conditions.
(§3) The medium was removed from the cells and replaced immediately by the TTR/compound mixtures or HBSS previously diluted 1:1 in Opti-MEM® supplemented with 0.8 mg/mL BSA, 2 mM Hepes buffer, 4 mM L-glutamine, 200 units/mL penicillin, 200 μg/mL streptomycin and 0.1 mg/mL CaCl2. The cells were incubated 24 hours at 37° C. Cell viability was evaluated by a resazurin reduction assay.
(§4) Briefly, 10 μL of resazurin (500 μM, PBS) was added to each well and fluorescence quantified in a plate reader (Ex/Em 530/590 nm, Tecan Safire 2, Austria) after 1 hour of incubation at 37° C. Cell viability was calculated as percentage of fluorescence relative to cells treated only with vehicle (100% viability) after subtraction of blank fluorescence (wells without cells). Averages and standard errors from 2 independently performed studies, each performed at least in triplicate, were calculated using GraphPrism (San Diego, Calif., US).

K15A-TTR = target: T1, K15A-TTR (Homo sapiens, UniProt P02766, K35A); assay: Acid-mediated K15A-TTR fibril formation with non-covalent stabilizers; type: biochemical; conditions: compound 7.2 μM, 72 hours, pH 4.4
T1 construct: composed of 127-residue β-sheet-rich subunits; made in house
Method: Compounds (5 μL of 1.44 mM solution in DMSO) were added to 495 μL of TTR (7.2 μM, in 10 mM sodium phosphate, 100 mM KCl, 1 mM EDTA, pH 7.0). The mixtures were vortexed and incubated (maintained) for 18 hours at 25° C. An acidic buffer solution (500 μL, 100 mM acetate, 100 mM KCl, 1 mM EDTA, pH 4.2) was added to obtain a final pH value of 4.4, and the mixtures were incubated at 37° C. for 72 hours without agitation. The solutions were vortexed to evenly distribute any precipitate, and turbidity was measured at 400 nm using a Hewlett Packard model 8453 UV-VIS Spectrophotometer.

WT-TTR = target: T2, WT-TTR (Homo sapiens, UniProt P02766); assay: Acid-mediated WT-TTR fibril formation assay (turbidity at 400 nm); type: biochemical; conditions: WT-TTR 3.6 μM, % fibril formation after 72 hours; read-out: IC50 (apparent), inhibition of WT-TTR amyloidogenesis
T2 construct: composed of 127-residue β-sheet-rich subunits; made in house; host or cells: E. coli
Method: The mixtures were vortexed and incubated (maintained) for 18 hours at 25° C.

[1] = system: WT-TTR cytotoxicity in human IMR-32 neuroblastoma cells; assay: Inhibition of WT-TTR cytotoxicity in IMR-32 cells (resazurin reduction); type: cell-based; conditions: WT-TTR 8 μM, compounds 2, 4, 6 and 8 μM, 24 hours
Method: Cell viability was measured after 24 hours by a resazurin reduction assay.
as §1, §2, §3, §4

| Compound | cytotoxicity to IMR-32 cells in the absence of WT-TTR (IMR-32 cells) | stabilization of K15A-TTR (in words) (K15A-TTR) | IC50 (WT-TTR) | inhibition of WT-TTR cytotoxicity to IMR-32 cells (in words) [1] | cytotoxicity to IMR-32 cells in the absence of WT-TTR (IMR-32 cells; human, IMR-32 neuroblastoma cells, 24 h, 8 µM) |
| --- | --- | --- | --- | --- | --- |
| Cc1cc(/C=C/c2ccc(C(=O)O)cc2)cc(C)c1O [Compound 8, reference compound] | None of these compounds were cytotoxic to IMR-32 cells | additional stabilization of K15A-TTR was observed | ~3 µM | clearly and dose-dependently inhibits IMR-32 cytotoxicity |  |
| Cc1cc(/C=C/c2ccccc2)cc(C)c1O [Compound 9, reference compound] |  | additional stabilization of K15A-TTR was observed |  | clearly and dose-dependently inhibits IMR-32 cytotoxicity | None of these compounds were cytotoxic to IMR-32 cells |
